Measurements as given in article PMC5155426, “Organic Redox Species in Aqueous Flow Batteries: Redox Potentials, Chemical Stability and Solubility” (Scientific Reports, 2016).
Values joined by “and” are separate entries in the source; they are usually repeats but may differ in a detail not shown here. Equal entries are not always repeated. Where two headings read alike, the source gives them in different places.

What was measured:
[1] = CV of GC electrode ground with pure anthraquinone (Pourbaix diagram); assay type: physicochemical; details: for E0' of unsubstituted AQ: surface-attached AQ on GC electrode
Excerpt: Organic R edox Species in Aqueous F low Batteries: R edox Potentials, C hem ical Stab ilit y and So lub ilit y S2: Pure Anthraquinone Pourbaix diagram
The redox potential of pure 9,10 -anthraquinone (Sigma-Aldrich, 97%) was estimated in aqueous solutions at different pH values by measuring the CV response of a GC electrode that had been freshly grinded with anthraquinone mixed with acetone to yield a surface covered/attached species. The CVs are shown in Figure 2, and it is noticed that as the pH increases, there is a significant side- reaction, and it was only possible to obtain reliable data up to pH 10. Thus, the redox potential at pH 13 is only extrapolated. The solutions were freshly prepared and were: 1 M H2SO4 f or pH 0, 0.2 M HCl/KCl buffer for pH 2, Reagecon Technical buffers for pH 4 and 7, 0 . 2 M acetate buffer f or pH 5 and Radiometer Analytical buffer (carbonate) for pH 10.
Figure 2 CVs for the anthraquinone-grinded GC electrode at different […]
Figure 3: The observed standard potential as a function of pH (right).
The line represents linear regression data. Colored arrows indicates the peaks interpreted as the pure AQ peaks used for the Pourbaix […]

[2] = Cyclic voltammetry: formal redox potential, peak current ratio, electrochemical reversibility; assay type: physicochemical
Experimental: The investigated compounds were used as-purchased and without any purification. […] For each series of CVs, a freshly polished electrode was used. The CVs for soluble compounds in 1 mM concentration were recorded in a glass beaker with a customized lid in nitrogen purged solutions of three different pHs, namely pH 0 (1 M H2SO4), pH 7 (0.5 M phosphate buffer) and pH 13 (1 M NaOH). The pH of the NaOH solution is taken as 13 to account for carbonization of the solution with exposure to air. A background CV was recorded before each CV experiment to exclude background contaminations. The CVs of insoluble compounds in 1 M H2SO4, or 0.5 M phosphate buffer were recorded as follows: 6 mL of the supporting electrolyte was mixed with approximately 4 mL of acetone, and then a small amount of the quinone was added so that its concentration was around 1 mM.
Each CV was analyzed in terms of peak potentials and peak currents. Peak currents were determined by subtracting a polynomial fit of the background from the recorded current as exemplified in Supplementary, S1. A plot of the absolute values of the peak currents to the square root of the scan rate was constructed and, when reasonable, a linear fit included to evaluate the electrochemical (Nernstian) reversibility of the electrochemical reaction. The peak current Ip for reversible reactions are given by equation (1).
Where F is the Faraday constant, R the gas constant, T the temperature, n the number of electron transferred, A the area of the electrode, DOthe diffusion coefficient and CO^*the bulk concentration of the analyte and v the scan rate. The peak current ratio is expected to be close to one for reversible species. The formal redox potential (E^0’), which is the adjusted form of the standard redox potential, where effects of the medium is taken into account, is reported here as the midpoint potential between the two peak potentials in the CV[24]. All half-cell potentials in this work refer to the normal hydrogen electrode (VNHE).

[3] = pKa of the central (hydro)quinone groups estimated from the Pourbaix diagram; assay type: physicochemical; details: aqueous media, estimated from slope change in Pourbaix diagram, Fig. 5
Experimental: Quinones generally undergo a reversible two-electron reduction/oxidation. The redox potential is strongly pH dependent, as the reaction may or may not involve two protons as illustrated in the scheme-of-squares mechanistic pathway in Fig. 3 [26]. At pH < pKa1, the reaction includes two protons and thus E^0’ decreases with 59 mV per pH unit (at 25 °C)[24]. At pKa1 < pH < pKa2 and pKa2 < pH only one and no protons are involved, whereby E^0’ decreases with 30 and 0 mV per pH unit, respectively. Generally, the reactions that include protons are slower and result in a lower electrochemical rate constant (k0) and may ultimately lead to higher charge-transfer resistance in the RFB. Thus, the choice of pH in the RFB environment strongly influences quinone electrochemical performance.
Similarly to sulfonated AQs, the positions of the hydroxyl groups affect E^0’, but in acidic only to a small extent. […] The three former all have the hydroxyl groups on positions close to the quinone groups. The difference in E^0’ for these hydroxylated AQs and others may be found in the pKa values of the central (hydro)quinone groups. Those are not trivial to measure given the insolubility at lower pH values for hydroxylated AQs, but they can be estimated from the Pourbaix diagram in Fig. 5 [24][26]. For instance, in the Pourbaix diagram of AQDS(2,7), E^0’ follows the expected −59 mv/pH unit from pH 0 to pH 7 (pKa1). Then the first (hydro)quinone group deprotonates, and the slope changes to 30 mV/pH unit until pH 10 (pKa2) and E^0’ becomes pH-independent. […] Thus, if one can predict or measure reasonable values for these pKa values, it should be possible to predict which ones will have a more negative or positive E^0’ at higher pH.

[4] = Aqueous solubility estimation (OECD test #105) in 1 M supporting electrolytes; details: thermodynamic from solid, Solubility
Experimental: After each addition the test tube was ultrasonicated and/or shaken vigorously using a Vortex Generator for at least 10 minutes at room temperature. Then the tube was inspected visually for undissolved sample and the addition of supporting electrolyte solution continued until the sample seemed just dissolved. The volumes just before and after full dissolution are used for calculating the solubility interval (Supplementary, S4 and S5) and the solubility is estimated as the average between the two.

[5] = Visual inspection of dissolved samples on standing (thixotropy, phase separation); assay type: physicochemical
Experimental: Dissolved samples were left to stand for 12 hours and visually inspected for thixotropy using a vortex generator. For very insoluble compounds the amount of sample was decreased to 0.01 g and the dissolution time increased up to 24 h.
In practical RFBs thixotropy is not wanted, as the redox solutions can be kept still for long times. […] Thixotropy of AQ dyes in aqueous dispersions has been described earlier, as well as some methods to overcome the problem such as addition of polyvinylpyrrolidone to the solution[43].

[6] = TEMPOL stability in aqueous buffer; assay type: physicochemical; details: after 30 days, uncharged state
Experimental: As an alternative to quinones, the nitroxide radical TEMPOL, was tested. […] This behaviour is similar to previous studies. […] A few other nitrogen-containing redox active species (Fig. 2 and Supplementary, S7) were included.

[7] = pH 0 (1 M H2SO4), midpoint of CV peak potentials, about 1 mM, acetone added for insoluble compounds
[8] = read-out: pKa1 of the (hydro)quinone groups
[9] = read-out: pKa2 of the (hydro)quinone groups

Peak current ratio ([2]; pH 0)	formal redox potential E0' [2, 7]	Peak current ratio ([2]; pH 7)	Electrochemical reversibility ([2]; pH 13)	Peak current ratio ([2]; pH 13)	pKa [3, 8]	pKa [3, 9]	solubility ([4]; 1 M H2SO4 supporting electrolyte prepared from MilliQ water, aqueous buffer, 1 M H2SO4, room temperature, interval just after / before full dissolution) [mM]	solubility ([4]; 1 M KCl supporting electrolyte prepared from MilliQ water, saline or isotonic, 1 M KCl, room temperature) [mM]	Electrochemical reversibility ([2]; pH 0)	formal redox potential E0' ([2]; pH 0 (1 M H2SO4); midpoint of CV peak potentials; about 1 mM; acetone added for insoluble compounds; 7))	thixotropy ([5]; all supporting electrolytes, disodium form as received)	Comment: behaviour of the solution upon standing ([5]; electrolyte not stated)	SMILES	E0' lower than that of HQ(1,4) ([1]; pH 0)	E0' of unsubstituted AQ ([1]; pH 0) [VNHE]	E0' of unsubstituted AQ ([1]; pH 7) [VNHE]	E0' of unsubstituted AQ, estimated by extrapolation in Fig. 5 ([1]; pH 13, reliable data only up to pH 10) [VNHE]	Electrochemical reversibility ([2]; pH 7)	degradation in aqueous buffer [6]
–	–	–	–	–	–	–	–	–	–	–	–	–	O=C1c2ccccc2C(=O)c2ccccc21 [AQ, 9,10-anthraquinone]	about 300 mV	0.4	0	~−0.4	–	–
0.83(4)	0.039(4) VNHE and 0.04 VNHE	0.9(1)	Reversible	1.1(1)	> 13	> 13	< 10	< 10	–	–	–	–	O=C1c2ccc(O)cc2C(=O)c2ccc(O)cc21 [AQDH(2,6), 2,6-dihydroxy-9,10-anthraquinone]	–	–	–	–	–	–
0.7(1)	0.165 VNHE	0.56(3)	Reversible	0.96(7)	7	10	–	–	Quasireversible	0.165(5) VNHE	thixotropy was observed	T hixotropic behaviour	O=C1c2ccc(S(=O)(=O)O)cc2C(=O)c2cc(S(=O)(=O)O)ccc21 [AQDS(2,7), 9,10-anthraquinone-2,7-disulfonate disodium]	–	–	–	–	Quasireversible	–
–	–	–	–	–	–	–	–	–	–	–	–	–	CC1(C)CC(O)CC(C)(C)N1[O] [TEMPOL, 4-hydroxy-2,2,6,6-tetramethylpiperidine-1-oxyl]	–	–	–	–	reversible	no degradation
